From patent US9993554B2 (CENTRO NACIONAL DE INVESTIGACIONES ONCOLOGICAS (CNIO), priority 2010, dated 2018)
Entries after “also recorded” stand apart in the source; their conditions may differ.

Assays:
[1] = test system: obese mice under high-fat diet; assay: Body weight and food intake of obese mice under high-fat diet; assay type: in vivo; settings: 10 mg/kg, ad libitum high-fat food
Procedure: Obese mice under long-term high-fat (HFD) were dosed with Compound A or with the indicated PI3KI by gavage once per day, during 2 weeks, resting the intervening week-end, and always with ad libitum access to HFD. During the two weeks of treatment, it was scored the amount of food intake (upper left panel) and the change in body weight relative to the initiation of the treatment (upper right panel). The final relative change in body weight is also represented (lower panel). The weight of non-obese littermates (always fed with standard diet, SD) is marked for reference.
Mice were fed either with a standard chow diet (Harlan Teklad 2018, 18% calories from fat) or, when indicated, with a high fat diet (Research Diets D12451, 45% of total calories from fat). To measure food intake, mice were housed in metabolic cages during 5 days, and food and water intake, as well as, the output of faeces and urine were measured during the last 4 days. Body composition (fat and lean content) was determined by Dual energy X-ray Absorptiometry (DXA) (Lunar PIXImus Densitometer, GE Medical Systems). Image acquisition lasted 5 minutes with mice under anesthesia by inhalation of 2% isofluorane in 100% oxygen. The analysis of lean mass and fat mass was performed using a Region Of Interest (ROI) comprising the entire body. […]

[2] = test system: SCID mice bearing human NSCLC A549 lung tumors; assay: Body weight of SCID mice bearing A549 lung tumor xenografts; assay type: in vivo; settings: 22 mg/kg orally, 9 doses, SCID mice with A549 xenografts
Procedure: FIG. 41. Body weight evolution of SCID mice bearing human NSCLC A549 lung tumors when treated with Compound A orally, 9 doses of 22 mg/Kg during day 15th and 30th, versus compounds treated with vehicle.
In “normal conditions” no body weight loss is observed.

For `CS(=O)(=O)N1CCN(Cc2cn3c(Cl)c(-c4cnc(N)nc4)nc(N4CCOCC4)c3n2)CC1` [Compound A], the “decrease of body weight” value ([1]; gavage once a day for 2 weeks) was “approx. 10%”, the food intake ([1]; during treatment) was “did not change significantly” and the “body weight of non-obese mice” value [2] was “no changes in body weight; also recorded: “lack” of weight loss activity”.
